Read-outs that look alike come from different tables or passages of the source. No end group written: not given here.
What was measured:
[1] = tested on: zebrafish embryos; details: in vivo; cited from earlier work
[2] = target: T1, TcdB (Clostridioides difficile, UniProt P18177); details: 100 µM peptide, 200 pM TcdB, added simultaneously, FCS-free medium, 7 h, 37 °C; n = 9
Target sequence in this assay (P18177 2-2366 limits assumed): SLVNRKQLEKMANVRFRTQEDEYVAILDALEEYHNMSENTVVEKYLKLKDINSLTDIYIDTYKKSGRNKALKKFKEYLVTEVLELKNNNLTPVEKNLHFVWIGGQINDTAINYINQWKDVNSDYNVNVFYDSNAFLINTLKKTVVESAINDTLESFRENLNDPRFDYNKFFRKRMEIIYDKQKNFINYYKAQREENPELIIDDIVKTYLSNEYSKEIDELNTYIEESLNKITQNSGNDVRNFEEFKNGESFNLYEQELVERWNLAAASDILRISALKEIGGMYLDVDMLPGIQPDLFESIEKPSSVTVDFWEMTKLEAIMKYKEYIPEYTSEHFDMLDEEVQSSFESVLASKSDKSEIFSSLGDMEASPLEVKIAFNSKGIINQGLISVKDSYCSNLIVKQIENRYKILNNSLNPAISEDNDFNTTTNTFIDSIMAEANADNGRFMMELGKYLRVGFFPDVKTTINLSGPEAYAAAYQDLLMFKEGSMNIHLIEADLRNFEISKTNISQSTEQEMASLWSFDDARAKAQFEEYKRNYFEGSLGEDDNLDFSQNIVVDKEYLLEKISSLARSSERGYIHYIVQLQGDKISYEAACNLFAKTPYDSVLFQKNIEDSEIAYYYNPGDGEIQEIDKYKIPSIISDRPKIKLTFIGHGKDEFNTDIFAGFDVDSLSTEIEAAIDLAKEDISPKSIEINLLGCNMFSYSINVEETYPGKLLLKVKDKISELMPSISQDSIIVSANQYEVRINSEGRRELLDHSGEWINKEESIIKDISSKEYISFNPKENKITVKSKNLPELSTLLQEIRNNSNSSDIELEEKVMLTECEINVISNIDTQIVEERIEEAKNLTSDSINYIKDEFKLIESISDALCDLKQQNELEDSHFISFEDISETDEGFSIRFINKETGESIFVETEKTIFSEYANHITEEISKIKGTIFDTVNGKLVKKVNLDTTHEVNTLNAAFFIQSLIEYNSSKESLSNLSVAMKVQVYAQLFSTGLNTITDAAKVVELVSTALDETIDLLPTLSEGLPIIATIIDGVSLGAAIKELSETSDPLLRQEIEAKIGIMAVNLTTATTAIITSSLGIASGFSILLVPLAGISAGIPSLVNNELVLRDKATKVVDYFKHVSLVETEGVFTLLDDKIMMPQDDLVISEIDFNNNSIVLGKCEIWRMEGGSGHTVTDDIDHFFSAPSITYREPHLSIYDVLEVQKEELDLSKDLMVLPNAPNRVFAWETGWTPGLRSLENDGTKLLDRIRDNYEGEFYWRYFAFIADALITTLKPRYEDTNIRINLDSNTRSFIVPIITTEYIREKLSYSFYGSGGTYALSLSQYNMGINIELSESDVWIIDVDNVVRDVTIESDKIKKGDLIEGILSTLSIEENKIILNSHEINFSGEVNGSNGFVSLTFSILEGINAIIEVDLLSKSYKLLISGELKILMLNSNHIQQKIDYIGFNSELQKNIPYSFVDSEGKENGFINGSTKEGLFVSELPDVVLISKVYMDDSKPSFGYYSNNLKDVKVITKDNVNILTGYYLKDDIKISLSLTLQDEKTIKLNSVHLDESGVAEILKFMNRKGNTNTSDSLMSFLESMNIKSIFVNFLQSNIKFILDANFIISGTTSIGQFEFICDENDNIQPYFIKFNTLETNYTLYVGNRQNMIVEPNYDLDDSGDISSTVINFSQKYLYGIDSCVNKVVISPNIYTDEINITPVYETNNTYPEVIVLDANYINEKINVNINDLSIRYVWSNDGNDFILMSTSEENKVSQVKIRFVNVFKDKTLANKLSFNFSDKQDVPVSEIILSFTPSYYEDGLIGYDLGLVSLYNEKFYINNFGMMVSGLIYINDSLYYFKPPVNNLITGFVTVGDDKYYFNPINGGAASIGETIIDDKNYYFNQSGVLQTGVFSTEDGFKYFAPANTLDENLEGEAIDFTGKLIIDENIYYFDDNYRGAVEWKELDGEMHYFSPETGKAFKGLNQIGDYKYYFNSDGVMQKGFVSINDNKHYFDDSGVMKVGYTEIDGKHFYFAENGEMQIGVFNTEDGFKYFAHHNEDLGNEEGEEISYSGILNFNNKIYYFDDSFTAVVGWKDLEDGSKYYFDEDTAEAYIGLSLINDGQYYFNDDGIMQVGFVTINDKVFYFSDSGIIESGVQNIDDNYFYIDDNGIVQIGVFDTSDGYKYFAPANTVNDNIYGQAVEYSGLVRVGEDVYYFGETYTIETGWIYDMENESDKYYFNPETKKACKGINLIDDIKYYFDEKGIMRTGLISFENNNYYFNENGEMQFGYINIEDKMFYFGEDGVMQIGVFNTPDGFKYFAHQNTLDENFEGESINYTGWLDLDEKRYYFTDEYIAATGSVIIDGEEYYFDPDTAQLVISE

[3] = target: T1, TcdB; assay: cell-based
Target sequence in this assay (P18177 2-2366 limits assumed): as above

[4] = in vitro; assay type: in vitro ADME, human; details: 37 °C
Protocol: The half-life of Angie 5 in plasma was calculated according to a work by Freisem et al., with minor modifications. A sample (0.5 ml) of human plasma was spiked with 20 µM Angie 5 and incubated at 37 °C. Aliquots (50 µl) were separated at 0, 15, 30, 60, and 120 min, respectively, and mixed with 250 µl 0.1% TFA in acetonitrile at − 20 °C. The mixture was centrifuged at 13,000 rpm for 30 s, and 150 µl of the supernatant was mixed with 150 µl 20% acetic acid in ice. The samples were analyzed with an Axima Confidence MALDI-TOF MS (Shimadzu) in linear mode using exactly the same measurement conditions for all samples spotted on a 384-well plate. Wells were coated with 0.5 µl of 10 mg/ml CHCA previously dissolved in TFA/water/acetonitrile/2-propanol (2.5/47.5/25/25, v/v), and the solvent was allowed to evaporate. Then, each sample (0.5 µl), previously mixed with matrix (0.5 µl), was applied onto the dry pre-coated well, and the solvent was allowed to evaporate. Laser shots were automatically done following a regular circular raster of a diameter of 2000 μm and spacing of 200 μm on each well; 100 profiles were acquired per sample, and 20 shots were accumulated per profile. An accelerating voltage of 20 kV was applied to the ion source. […] The half-life was calculated using GraphPad Prism version 10.3.1 for Windows, GraphPad Software, Boston, Massachusetts USA, www.graphpad.com. […]

[5] = tested on: C. difficile; details: previously shown; cited from earlier work
Protocol: Here, initially higher concentrations of the Angie peptides were tested and inhibition zones around the Angie peptides and the positive control were measured (Supplementary Fig. 1).

[6] = target: T1, TcdB; details: Angie peptides 100 µM, α-defensin-6 6 µM, TcdB 50 ng in 25 µl PBS, 30 min, 37 °C, supernatant/pellet immunoblot; n = 3-4
Protocol: For the precipitation analysis, TcdB (50 ng equals 2 ng/µl) and inhibitors, α-defensin-6 (6 µM) and Angie peptides or water (solvent control) were incubated for 30 min in a total volume of 25 µl PBS. Next, the samples were centrifuged for 20 min, 14,000 rpm at 4 °C for separation of supernatant and pellet fraction. […] TcdB was detected using an anti-TcdB antibody (1:1000, Anti-Clostridium difficile Toxin B antibody, Abcam, Cambridge, UK).

For KAINTFIHGNKISIKAI [Angie 1], the “Toxicity for zebrafish embryos” value [1] is given as “not toxic”.

For KDINTFIHGNKRSIKAI [reference Angie], the “Protection from TcdB-mediated cell rounding, CaCo-2 cells” value (shortened to “Protection”) [2] was “did not inhibit”.

In the case of KFINIFIHGNKRSIKAI [Angie 5], the IC50 [3] is reported as 46.3 µM, the IC50 ([3]; IC50 of TcdB-mediated cell rounding, Vero cells, 10 pM TcdB, no preincubation, 3 h after addition, FCS-free medium, ± SEM 1.08 µM, four-parameter fit) is reported as 40.9 µM and the “K of one-phase decay curve in human plasma” value ([4]; fit of signal area vs. time, human plasma, 20 µM, MALDI-TOF) is reported as 0.1274. The half-life at 20 µM ([4]; human plasma spiked with 20 µM, aliquots at 0, 15, 30, 60, 120 min, 0.1% TFA in acetonitrile, MALDI-TOF MS peak area, one-phase decay fit, n = 3 per time point) was 5.44 min and the “Protection” value [2] was “protected”.

In the case of KGINTFIHGNKRSIKAI [Angie 6], the “Protection” value [2] is reported as “did not inhibit”.

With KLINTFIHGNKRSIKAI [Angie 7] the “Protection” value [2] was “did not inhibit”.

In the case of “LL-37: antimicrobial peptide used as positive control in the radial diffusion assay (Anaspec) (LLGDFFRKSKEKIGKEFKRIVQRIKDFLRNLVPRTES; Antibacterial peptide LL-37; UniProt P49913 134-170, looked up)”, the “Activity against C. difficile” value [5] is given as “activity against C. difficile”.

With “α-defensin-6: human peptide, positive control for precipitation of TcdB (PeptaNova)” the “Precipitate formation with TcdB” value [6] was “precipitate formation”.
